Source: ChEMBL document CHEMBL3885881, “DrugMatrix”

Species on record: Rattus norvegicus
Assay: DrugMatrix - Regimen: Daily Repeat
Format: toxicity, organism-based, Sprague-Dawley
Parameters: regimen Daily Repeat, gender Male, age 6-8 weeks
Conditions: in vivo, po, 2 mg/kg, route oral GAVAGE, dose level High, vehicle 100 % WATER; for ABSOLUTE BASOPHIL / ABSOLUTE EOSINOPHIL / ABSOLUTE LYMPHOCYTE / ABSOLUTE MONOCYTE / ABSOLUTE SEGMENTED NEUTROPHIL / BASOPHIL / EOSINOPHIL / ERYTHROCYTE COUNT / HEMATOCRIT / HEMOGLOBIN / LEUKOCYTE COUNT / LYMPHOCYTE / MEAN CORPUSCULAR HEMOGLOBIN / MEAN CORPUSCULAR HEMOGLOBIN CONCENTRATION / MEAN CORPUSCULAR VOLUME / MONOCYTE / NEUTROPHIL / NUCLEATED RED BLOOD CELLS / PLATELET COUNT: tissue Blood
[1] = 72 h, tissue Plasma, time 3 day
[2] = 120 h, tissue Plasma, time 5 day

With `O=[Se]([O-])[O-].[Na+].[Na+]` [SODIUM SELENITE] the “ABSOLUTE BASOPHIL” value (72 h, time 3 day) was 0 CELLS/uL, the “ABSOLUTE EOSINOPHIL” value (72 h, time 3 day) was 0 CELLS/uL and the “ABSOLUTE LYMPHOCYTE” value (72 h, time 3 day) was 12300.67 CELLS/uL. The “ABSOLUTE MONOCYTE” value (72 h, time 3 day) was 763.67 CELLS/uL, the “ABSOLUTE SEGMENTED NEUTROPHIL” value (72 h, time 3 day) was 2435.67 CELLS/uL and the BASOPHIL (72 h, time 3 day) was 0%. For the same molecule, the EOSINOPHIL (72 h, time 3 day) was 0%, the “ERYTHROCYTE COUNT” value (72 h, time 3 day) was 6.2 x10E6/uL and the HEMATOCRIT (72 h, time 3 day) was 38.47%. For the same molecule, the HEMOGLOBIN (72 h, time 3 day) was 14.1 G/DL, the “LEUKOCYTE COUNT” value (72 h, time 3 day) was 15.5 x10E3/uL and the LYMPHOCYTE (72 h, time 3 day) was 80%. The “MEAN CORPUSCULAR HEMOGLOBIN” value (72 h, time 3 day) was 22.77 pg, the “MEAN CORPUSCULAR HEMOGLOBIN CONCENTRATION” value (72 h, time 3 day) was 36.7 G/DL and the “MEAN CORPUSCULAR VOLUME” value (72 h, time 3 day) was 62.07 fL. The MONOCYTE (72 h, time 3 day) was 5%, the NEUTROPHIL (72 h, time 3 day) was 15% and the “NUCLEATED RED BLOOD CELLS” value (72 h, time 3 day) was 0 /100WBC. The “PLATELET COUNT” value (72 h, time 3 day) was 701.33 x10E3/uL, the “ALANINE AMINOTRANSFERASE” value [1] was 84.33 u/L and the ALBUMIN [1] was 4.57 G/DL. For the same molecule, the “ALKALINE PHOSPHATASE” value [1] was 506.33 u/L, the “ASPARTATE AMINOTRANSFERASE” value [1] was 143.67 u/L and the “BLOOD UREA NITROGEN” value [1] was 15.67 mg/dL. For the same molecule, the “CARBON DIOXIDE” value [1] was 24 mmol/L, the CHLORIDE [1] was 102.33 MEQ/L and the CHOLESTEROL [1] was 121.33 mg/dL. The CREATININE [1] was 0.18 mg/dL, the GLUCOSE [1] was 145.67 mg/dL and the “LACTATE DEHYDROGENASE” value [1] was 321.67 u/L. The LIPASE [1] was 9 u/L, the PHOSPHORUS [1] was 12.8 mg/dL and the POTASSIUM [1] was 5.73 MEQ/L. For the same molecule, the SODIUM [1] was 146 MEQ/L, the “TOTAL BILIRUBIN” value [1] was 0.23 mg/dL and the “TOTAL PROTEIN” value [1] was 6.53 G/DL. The “URIC ACID” value [1] was 1.43 mg/dL, the “ABSOLUTE BASOPHIL” value (120 h, time 5 day) was 0 CELLS/uL and the “ABSOLUTE EOSINOPHIL” value (120 h, time 5 day) was 0 CELLS/uL. For the same molecule, the “ABSOLUTE LYMPHOCYTE” value (120 h, time 5 day) was 10507.33 CELLS/uL, the “ABSOLUTE MONOCYTE” value (120 h, time 5 day) was 251 CELLS/uL and the “ABSOLUTE SEGMENTED NEUTROPHIL” value (120 h, time 5 day) was 875 CELLS/uL. The BASOPHIL (120 h, time 5 day) was 0%, the EOSINOPHIL (120 h, time 5 day) was 0% and the “ERYTHROCYTE COUNT” value (120 h, time 5 day) was 5.43 x10E6/uL. The HEMATOCRIT (120 h, time 5 day) was 33.4%, the HEMOGLOBIN (120 h, time 5 day) was 12.4 G/DL and the “LEUKOCYTE COUNT” value (120 h, time 5 day) was 11.63 x10E3/uL. For the same molecule, the LYMPHOCYTE (120 h, time 5 day) was 90.33%, the “MEAN CORPUSCULAR HEMOGLOBIN” value (120 h, time 5 day) was 22.87 pg and the “MEAN CORPUSCULAR HEMOGLOBIN CONCENTRATION” value (120 h, time 5 day) was 37.17 G/DL. For the same molecule, the “MEAN CORPUSCULAR VOLUME” value (120 h, time 5 day) was 61.53 fL, the MONOCYTE (120 h, time 5 day) was 2% and the NEUTROPHIL (120 h, time 5 day) was 7.67%. For the same molecule, the “NUCLEATED RED BLOOD CELLS” value (120 h, time 5 day) was 0 /100WBC, the “PLATELET COUNT” value (120 h, time 5 day) was 896.33 x10E3/uL and the “ALANINE AMINOTRANSFERASE” value [2] was 56.33 u/L. The ALBUMIN [2] was 4.77 G/DL, the “ALKALINE PHOSPHATASE” value [2] was 396 u/L and the “ASPARTATE AMINOTRANSFERASE” value [2] was 80.67 u/L. For the same molecule, the “BLOOD UREA NITROGEN” value [2] was 12.33 mg/dL, the “CARBON DIOXIDE” value [2] was 33.33 mmol/L and the CHLORIDE [2] was 98.33 MEQ/L. The CHOLESTEROL [2] was 86.33 mg/dL, the CREATININE [2] was 0.14 mg/dL and the GLUCOSE [2] was 141 mg/dL. For the same molecule, the “LACTATE DEHYDROGENASE” value [2] was 84 u/L, the LIPASE [2] was 8.33 u/L and the PHOSPHORUS [2] was 13.2 mg/dL. The POTASSIUM [2] was 6.3 MEQ/L, the SODIUM [2] was 145.1 MEQ/L and the “TOTAL BILIRUBIN” value [2] was 0.2 mg/dL. For the same molecule, the “TOTAL PROTEIN” value [2] was 6.87 G/DL.
